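Exposure lasted 48 hours, with cells grown in 96-well plates and compounds tested at five concentrations. At the GI50, growth is halved. At the TGI there is no net growth.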
Columns and labels:
Assay in all cases: DTP human tumour cell line panel, 48 h
SK-MEL-28 melanoma = system: SK-MEL-28 melanoma
MDA-MB-435 = system: MDA-MB-435
HOP-92 NSCLC = system: HOP-92 NSCLC
786-0 renal = system: 786-0 renal
NCI/ADR-RES ovarian = system: NCI/ADR-RES ovarian
OVCAR-5 ovarian = system: OVCAR-5 ovarian
SF-268 CNS = system: SF-268 CNS
BT-549 breast = system: BT-549 breast
UACC-62 melanoma = system: UACC-62 melanoma
DU-145 prostate = system: DU-145 prostate
HL-60(TB) leukemia = system: HL-60(TB) leukemia
RPMI-8226 leukemia = system: RPMI-8226 leukemia
HCC-2998 colon = system: HCC-2998 colon
NCI-H23 lung = system: NCI-H23 lung
U251 CNS = system: U251 CNS
HCT-116 colon = system: HCT-116 colon
SR leukemia = system: SR leukemia
KM12 colon = system: KM12 colon
PC-3 prostate = system: PC-3 prostate
UO-31 renal = system: UO-31 renal
HS 578T breast = system: HS 578T breast
SK-MEL-5 melanoma = system: SK-MEL-5 melanoma
TK-10 renal = system: TK-10 renal
SK-MEL-2 melanoma = system: SK-MEL-2 melanoma
SW-620 colon = system: SW-620 colon
M14 melanoma = system: M14 melanoma
CAKI-1 renal = system: CAKI-1 renal
SNB-75 CNS = system: SNB-75 CNS
CCRF-CEM leukemia = system: CCRF-CEM leukemia
SK-OV-3 ovarian = system: SK-OV-3 ovarian
A498 renal = system: A498 renal
NCI-H522 lung = system: NCI-H522 lung
EKVX NSCLC = system: EKVX NSCLC
SNB-19 CNS = system: SNB-19 CNS
SF-295 CNS = system: SF-295 CNS
A549 NSCLC = system: A549 NSCLC
LOX IMVI melanoma = system: LOX IMVI melanoma
NCI-H226 lung = system: NCI-H226 lung
SN12C renal = system: SN12C renal
HCT-15 colon = system: HCT-15 colon
SF-539 CNS = system: SF-539 CNS
K-562 leukemia = system: K-562 leukemia
COLO 205 colon = system: COLO 205 colon
RXF 393 renal = system: RXF 393 renal
OVCAR-3 ovarian = system: OVCAR-3 ovarian
NCI-H460 lung = system: NCI-H460 lung
MALME-3M melanoma = system: MALME-3M melanoma
MDA-MB-231 breast = system: MDA-MB-231 breast
OVCAR-8 ovarian = system: OVCAR-8 ovarian
HOP-62 NSCLC = system: HOP-62 NSCLC
HT29 colon = system: HT29 colon
MCF7 breast = system: MCF7 breast
IGROV1 ovarian = system: IGROV1 ovarian
T-47D breast = system: T-47D breast
OVCAR-4 ovarian = system: OVCAR-4 ovarian
MOLT-4 leukemia = system: MOLT-4 leukemia
UACC-257 melanoma = system: UACC-257 melanoma
ACHN renal = system: ACHN renal

Work on `NS(=O)(=O)N(c1cc(C(F)(F)F)cc(C(F)(F)F)c1)C1CCN(Cc2ccc(F)cc2)CC1` yielded a GI50 (SK-MEL-28 melanoma) of 11.6 µM, a TGI (SK-MEL-28 melanoma) of 23.8 µM and a GI50 (MDA-MB-435) of 6.4 µM. It also gave a TGI (MDA-MB-435) of 19.7 µM, a GI50 (HOP-92 NSCLC) of 1870 nM and a TGI (HOP-92 NSCLC) of 15.2 µM. The GI50 (786-0 renal) was 11.4 µM, the TGI (786-0 renal) was 23.5 µM and the GI50 (NCI/ADR-RES ovarian) was 6.72 µM. It also gave a TGI (NCI/ADR-RES ovarian) of 19.4 µM, a GI50 (OVCAR-5 ovarian) of 10.9 µM and a TGI (OVCAR-5 ovarian) of 23.2 µM. The GI50 (SF-268 CNS) was 10.9 µM, the TGI (SF-268 CNS) was 22.9 µM and the GI50 (BT-549 breast) was 12.5 µM. It also gave a TGI (BT-549 breast) of 24.9 µM, a GI50 (UACC-62 melanoma) of 12.7 µM and a TGI (UACC-62 melanoma) of 25.6 µM. The GI50 (DU-145 prostate) was 13.5 µM, the TGI (DU-145 prostate) was 26.3 µM and the GI50 (HL-60(TB) leukemia) was 9.11 µM. The TGI (HL-60(TB) leukemia) was 28.6 µM, the GI50 (RPMI-8226 leukemia) was 5.24 µM and the TGI (RPMI-8226 leukemia) was 22.3 µM. For the same compound, the GI50 (HCC-2998 colon) was 1830 nM, the TGI (HCC-2998 colon) was 3.56 µM and the GI50 (NCI-H23 lung) was 10.4 µM. The TGI (NCI-H23 lung) was 22.1 µM, the GI50 (U251 CNS) was 10.7 µM and the TGI (U251 CNS) was 24.5 µM. For the same compound, the GI50 (HCT-116 colon) was 7.38 µM, the TGI (HCT-116 colon) was 19.8 µM and the GI50 (SR leukemia) was 2400 nM. For the same compound, the TGI (SR leukemia) was 9.02 µM, the GI50 (KM12 colon) was 5.16 µM and the TGI (KM12 colon) was 17 µM. It also gave a GI50 (PC-3 prostate) of 4.54 µM, a TGI (PC-3 prostate) of 17.6 µM and a GI50 (UO-31 renal) of 3.67 µM. For the same compound, the TGI (UO-31 renal) was 16.4 µM, the GI50 (HS 578T breast) was 13.8 µM and the TGI (HS 578T breast) was 33.6 µM. It also gave a GI50 (SK-MEL-5 melanoma) of 3.44 µM, a TGI (SK-MEL-5 melanoma) of 12.7 µM and a GI50 (TK-10 renal) of 12.2 µM. For the same compound, the TGI (TK-10 renal) was 25.4 µM, the GI50 (SK-MEL-2 melanoma) was 5.87 µM and the TGI (SK-MEL-2 melanoma) was 18.1 µM. The GI50 (SW-620 colon) was 13.7 µM, the TGI (SW-620 colon) was 30.7 µM and the GI50 (M14 melanoma) was 6.12 µM. The TGI (M14 melanoma) was 18.4 µM, the GI50 (CAKI-1 renal) was 7.21 µM and the TGI (CAKI-1 renal) was 20.4 µM. The GI50 (SNB-75 CNS) was 13.2 µM, the TGI (SNB-75 CNS) was 25.9 µM and the GI50 (CCRF-CEM leukemia) was 12 µM. It also gave a TGI (CCRF-CEM leukemia) of 36.3 µM, a GI50 (SK-OV-3 ovarian) of 10.9 µM and a TGI (SK-OV-3 ovarian) of 23.3 µM. For the same compound, the GI50 (A498 renal) was 12.3 µM, the TGI (A498 renal) was 26.1 µM and the GI50 (NCI-H522 lung) was 3.52 µM. It also gave a TGI (NCI-H522 lung) of 13.4 µM, a GI50 (EKVX NSCLC) of 11.2 µM and a TGI (EKVX NSCLC) of 23.8 µM. The GI50 (SNB-19 CNS) was 14.3 µM, the TGI (SNB-19 CNS) was 27.8 µM and the GI50 (SF-295 CNS) was 13.8 µM. It also gave a TGI (SF-295 CNS) of 27.7 µM, a GI50 (A549 NSCLC) of 12.4 µM and a TGI (A549 NSCLC) of 29.1 µM. For the same compound, the GI50 (LOX IMVI melanoma) was 3.83 µM, the TGI (LOX IMVI melanoma) was 13.7 µM and the GI50 (NCI-H226 lung) was 6.73 µM. It also gave a TGI (NCI-H226 lung) of 21.7 µM, a GI50 (SN12C renal) of 2970 nM and a TGI (SN12C renal) of 11.6 µM. For the same compound, the GI50 (HCT-15 colon) was 7.3 µM, the TGI (HCT-15 colon) was 21.8 µM and the GI50 (SF-539 CNS) was 14.1 µM. The TGI (SF-539 CNS) was 27.6 µM, the GI50 (K-562 leukemia) was 3.68 µM and the TGI (K-562 leukemia) was 19 µM. It also gave a GI50 (COLO 205 colon) of 1640 nM, a TGI (COLO 205 colon) of 3.08 µM and a GI50 (RXF 393 renal) of 4.42 µM. It also gave a TGI (RXF 393 renal) of 16.6 µM, a GI50 (OVCAR-3 ovarian) of 7.6 µM and a TGI (OVCAR-3 ovarian) of 20.4 µM. It also gave a GI50 (NCI-H460 lung) of 13.2 µM, a TGI (NCI-H460 lung) of 31 µM and a GI50 (MALME-3M melanoma) of 2310 nM. It also gave a TGI (MALME-3M melanoma) of 9.5 µM, a GI50 (MDA-MB-231 breast) of 12.1 µM and a TGI (MDA-MB-231 breast) of 26.2 µM. For the same compound, the GI50 (OVCAR-8 ovarian) was 15.5 µM, the TGI (OVCAR-8 ovarian) was 33.9 µM and the GI50 (HOP-62 NSCLC) was 3.51 µM. It also gave a TGI (HOP-62 NSCLC) of 14.1 µM, a GI50 (HT29 colon) of 2680 nM and a TGI (HT29 colon) of 7.51 µM. It also gave a GI50 (MCF7 breast) of 5.44 µM, a TGI (MCF7 breast) of 18.5 µM and a GI50 (IGROV1 ovarian) of 4.89 µM. It also gave a TGI (IGROV1 ovarian) of 18 µM, a GI50 (T-47D breast) of 2740 nM and a TGI (T-47D breast) of 13.9 µM. The GI50 (OVCAR-4 ovarian) was 10.5 µM, the TGI (OVCAR-4 ovarian) was 22.2 µM and the GI50 (MOLT-4 leukemia) was 8.51 µM. For the same compound, the TGI (MOLT-4 leukemia) was 29.6 µM, the GI50 (UACC-257 melanoma) was 11.5 µM and the TGI (UACC-257 melanoma) was 25.3 µM. The GI50 (ACHN renal) was 11.2 µM and the TGI (ACHN renal) was 23.3 µM.

From PubChem BioAssay (NCI)
